Source: PubChem BioAssay AID1549 (Sanford-Burnham Center for Chemical Genomics, 2009)
Activity calls are given as the source filed them. How the calls were made is not given here.

These compounds were tested against Influenza A virus M2 proton channel (A/TW/4845/1999 H1N1) (assay: NMR binding screen, influenza A virus M2 proton channel, Kd (AID 1549)). Conditions: M2 protein.
With `Cn1c(=O)n(CC(=O)N2CCOCC2)c2ccccc21` the Kd was > 4 mM (inactive). `CN1CCC(NC(=O)Cc2c(F)cccc2Cl)CC1` was tested, and the Kd was > 4 mM (inactive). With `CC1CN(C(=O)c2ccncc2)CC(C)O1` (stereo not given) the Kd was > 4 mM (inactive). For `COC(=O)C1CCN(c2ccc(Cl)nn2)CC1`, the Kd was > 4 mM (inactive). For `CC(C)(C(N)=O)/[N+]([O-])=C\c1ccccc1`, the Kd was > 4 mM (inactive). In the case of `NC(=O)C1CC2C=CC1C2` (stereo not given), the Kd is reported as > 4 mM (inactive). For `CC1(O)CC2C=CC1C2` (stereo not given), the Kd was > 4 mM (inactive). In the case of `NC(=O)c1cn(-c2ccccc2)nc1-c1cccnc1`, the Kd is reported as > 4 mM (inactive). For `Cc1cc(C)n(CC(=O)NC2CCCCC2)n1`, the Kd was > 4 mM (inactive). For `Cc1nn(-c2ccccc2)nc1CN`, the Kd was > 4 mM (inactive). For `Cc1ccc(-c2c(C)n([O-])c(C)c(C)[n+]2=O)cc1`, the Kd was > 4 mM (inactive). For `CC(=O)OCC[C@H](C)CCC=C(C)C`, the Kd was > 4 mM (inactive). In the case of `O=C1NC(=S)NC(=O)C1=Cc1cccs1`, the Kd is reported as > 4 mM (inactive). For `CCNC(CC(=O)Nc1cccc([N+](=O)[O-])c1)C(=O)O` (stereo not given), the Kd was > 4 mM (inactive). `COCc1c(CN)cnc(C)c1N` was tested, and the Kd was > 4 mM (inactive). `O=C(N1CCOCC1)N1CCN(c2ccccn2)CC1` was tested, and the Kd was > 4 mM (inactive). In the case of `O=C1CSC(=Nc2cc(Cl)ccc2Cl)N1`, the Kd is reported as > 4 mM (inactive). In the case of `Nc1[nH]c(=S)ncc1S(=O)(=O)c1ccccc1`, the Kd is reported as > 4 mM (inactive). In the case of `COc1ccc(CN2CCNC(=O)C2CC(=O)O)cc1C` (stereo not given), the Kd is reported as > 4 mM (inactive). `NS(=O)(=O)c1ccc2c3c(cccc13)C(=O)N2` was tested, and the Kd was > 4 mM (inactive). With `O=C(NCC1CCNCC1)c1ccccn1` the Kd was > 4 mM (inactive). In the case of `CC(C)CCCC(C)[C@H]1CCC2C3CC[C@H]4CC(=O)CC[C@]4(C)C3CC[C@@]21C` (stereo not given in full), the Kd is reported as > 4 mM (inactive). For `O=C(Nc1ccccc1CO)c1ccccc1F`, the Kd was > 4 mM (inactive). In the case of `Cn1cc(Cl)c(C(=O)NC2CCCC2)n1`, the Kd is reported as > 4 mM (inactive). In the case of `Nc1cccc2c(=O)[nH][nH]c(=O)c12`, the Kd is reported as > 4 mM (inactive). For `CSc1nn(-c2ccccc2)c(N)c1C#N`, the Kd was > 4 mM (inactive). In the case of `COc1cc(/C=C/C(=O)/C=C(O)/C=C/c2ccc(O)c(OC)c2)ccc1O`, the Kd is reported as > 4 mM (inactive). In the case of `OCc1ccccc1O[C@@H]1O[C@H](CO)[C@@H](O)[C@H](O)[C@H]1O`, the Kd is reported as > 4 mM (inactive). With `O=NN1C(=O)c2ccccc2C1=O` the Kd was > 4 mM (inactive). For `Cc1cccc(NC(=O)NC(N)=O)c1`, the Kd was > 4 mM (inactive). In the case of `O=S1(=O)NC(=NCc2ccccc2)c2ccccc21`, the Kd is reported as > 4 mM (inactive). In the case of `CC(C)=CCc1c(O)cc2oc(C)cc(=O)c2c1O`, the Kd is reported as > 4 mM (inactive). For `O=C(NC1=NCCS1)c1csc2ccccc12`, the Kd was > 4 mM (inactive). With `COc1c2c(c(CC=C(C)C)c3oc(=O)c(-c4ccc(O)cc4)c(O)c13)OC(C)(C)C=C2` the Kd was > 4 mM (inactive). With `C=C[C@@]1(C)CC(=O)[C@@]2(O)[C@](C)(O1)[C@@H](OC(C)=O)[C@@H](O)C1C(C)(C)CC[C@H](O)[C@@]12C` (stereo not given in full) the Kd was > 4 mM (inactive). With `CC1=CC2C(C(C)C)CCC(C)(O)C2CC1` (stereo not given) the Kd was > 4 mM (inactive). In the case of `Cc1cc(O)cc(=O)n1CCCC(=O)O`, the Kd is reported as > 4 mM (inactive). For `CC(=O)Nc1cccc(N2C(=O)CCC2=O)c1`, the Kd was > 4 mM (inactive). For `Oc1cnc2ccccc2c1CN1CCOCC1`, the Kd was > 4 mM (inactive). With `COC(=O)c1ccc(C(=S)N2CCOCC2)cc1` the Kd was > 4 mM (inactive). `CC(=O)N(C)Cc1nc2ccccc2n1C` was tested, and the Kd was > 4 mM (inactive). In the case of `COC(=O)c1c(OC)cc2c(c1C)Oc1c(Cl)c(O)c(Cl)c(C)c1C(=O)O2`, the Kd is reported as > 4 mM (inactive). For `N#CCCn1c(=O)oc2ccccc21`, the Kd was > 4 mM (inactive). For `CC1CC2(NC(=O)NC2=O)C(C)CN1C` (stereo not given), the Kd was > 4 mM (inactive). In the case of `O=c1[nH]cc(NCc2ccccc2)c(=O)[nH]1`, the Kd is reported as > 4 mM (inactive). With `Nc1ncnc2c1ncn2C1C[C@H](O)[C@@H](CO)O1` (stereo not given in full) the Kd was > 4 mM (inactive). `O=C1CC(=O)N(c2cccc(Cl)c2)N1` was tested, and the Kd was > 4 mM (inactive). With `CC(=O)Nc1ccc(Nc2nnc(C)c(=O)[nH]2)cc1` the Kd was > 4 mM (inactive). In the case of `C[C@H]1C(=O)CCC2[C@]3(C)CC[C@@]4(C)C5CC(C)(C)CC[C@]5(C)CC[C@]4(C)C3CC[C@@]21C` (stereo not given in full), the Kd is reported as > 4 mM (inactive). For `CN(C)C(=S)Nc1ccc([N+](=O)[O-])cc1`, the Kd was > 4 mM (inactive). With `Nc1nc(=S)n2c(n1)oc1ccccc12` the Kd was > 4 mM (inactive). For `O=C(O)c1ccccc1N1CCOCC1`, the Kd was > 4 mM (inactive). With `O=c1c2ccccc2[nH]c2ncccc12` the Kd was > 4 mM (inactive). In the case of `O=C(c1cnsn1)N1CCN(c2ccccc2)CC1`, the Kd is reported as > 4 mM (inactive). In the case of `Cc1ccc(CCC(N)=O)o1`, the Kd is reported as > 4 mM (inactive). For `O=C1CC(NCc2ccco2)C(=O)NN1` (stereo not given), the Kd was > 4 mM (inactive). `O=C1CSC2(CN3CCC2CC3)N1` (stereo not given) was tested, and the Kd was > 4 mM (inactive). In the case of `CCc1ccc(/C=N/n2cnnc2)cc1`, the Kd is reported as > 4 mM (inactive). For `Cc1ccc(N2C(=O)C3C4C=CC(O4)C3C2=O)cc1` (stereo not given), the Kd was > 4 mM (inactive). `O=C1CN(C(=O)c2ccccc2F)c2ccccc2N1` was tested, and the Kd was > 4 mM (inactive). `O=C(NCc1cccc(Cl)c1)c1cnccn1` was tested, and the Kd was > 4 mM (inactive). `O=C(C1CCNCC1)N1CCCCCC1` was tested, and the Kd was > 4 mM (inactive). With `Cc1ccccc1NC(=O)N1CCOCC1` the Kd was > 4 mM (inactive). For `COc1ccc(C(N)=O)cc1N`, the Kd was > 4 mM (inactive). For `Cc1ccc(C)c(S(=O)(=O)NCc2cccnc2)c1`, the Kd was > 4 mM (inactive). In the case of `NCCc1nc2ccccc2[nH]1`, the Kd is reported as > 4 mM (inactive). In the case of `Cc1nnsc1C(=O)Nc1ccccc1[N+](=O)[O-]`, the Kd is reported as > 4 mM (inactive). `CN(C)Cc1nc2c([nH]1)c(=O)[nH]c(=O)n2C` was tested, and the Kd was > 4 mM (inactive). For `O=C1N/C(=N\c2ccccn2)SC1Cc1ccccc1` (stereo not given), the Kd was > 4 mM (inactive). `O=C(O)c1cc(O)c2c(c1)C(=O)c1cc(O)cc(O)c1C2=O` was tested, and the Kd was > 4 mM (inactive). For `C[n+]1ccc(C(=O)[O-])cc1`, the Kd was > 4 mM (inactive). `CCOC12NC(=O)CC(=O)N1C(c1ccccc1)=CS2` (stereo not given) was tested, and the Kd was > 4 mM (inactive). For `O=C(O)Cn1c(C(F)(F)F)nc2ccccc21`, the Kd was > 4 mM (inactive). In the case of `O=S(=O)(O)c1cc[n+]([O-])cc1`, the Kd is reported as > 4 mM (inactive). For `Cc1c(C(=O)Nc2cnccn2)oc2ccccc12`, the Kd was > 4 mM (inactive). `CN1CCN(CC(=O)Nc2ccccc2)CC1` was tested, and the Kd was > 4 mM (inactive). For `COc1cc(C(=S)N2CCOCC2)ccc1O`, the Kd was > 4 mM (inactive). In the case of `COc1ccccc1NC(N)=S`, the Kd is reported as > 4 mM (inactive). For `O=C(Cc1cccs1)Nc1ccon1`, the Kd was > 4 mM (inactive). For `NC(=O)/C=C/C(=O)Nc1ccccc1`, the Kd was > 4 mM (inactive). For `CC(C)NC1CS(=O)(=O)CC1O` (stereo not given), the Kd was > 4 mM (inactive). `CCNC(=O)CC1Nc2ccccc2NC1=O` (stereo not given) was tested, and the Kd was > 4 mM (inactive). With `O=C(CSc1ncn[nH]1)c1ccc2c(c1)OCO2` the Kd was > 4 mM (inactive). In the case of `CC(=O)Nc1ccc(CN2CCOCC2)cc1`, the Kd is reported as > 4 mM (inactive). `Nc1nc(-c2ccc(F)c(F)c2)cs1` was tested, and the Kd was > 4 mM (inactive). For `NC(=O)c1c(Cl)nsc1-c1ccccc1Cl`, the Kd was > 4 mM (inactive). In the case of `COC(=O)c1c(SC)nc(-c2ccccc2)[nH]c1=O`, the Kd is reported as > 4 mM (inactive). For `CS/C(N)=C\C(C)=O`, the Kd was > 4 mM (inactive). For `CC1(C(=O)O)CC2C=CC1C2` (stereo not given), the Kd was > 4 mM (inactive). In the case of `NC(Cc1c[nH]c2ccccc12)C(=O)O` (stereo not given), the Kd is reported as > 4 mM (inactive). In the case of `O=C(/C=C/c1ccco1)NC1=NCCS1`, the Kd is reported as > 4 mM (inactive). For `Cc1cc(OC(=O)c2ccco2)c([N+](=O)[O-])c(=O)[nH]1`, the Kd was > 4 mM (inactive). For `O=C(NN1CCOCC1)c1ccccc1F`, the Kd was > 4 mM (inactive). In the case of `COC(=O)c1noc(C)c1C(C)=O`, the Kd is reported as > 4 mM (inactive). `O=C(O)c1ccc(-n2cccn2)cc1` was tested, and the Kd was > 4 mM (inactive). With `O=C1NC(=Nc2ccc(O)cc2)S/C1=C/c1ccco1` the Kd was > 4 mM (inactive). In the case of `CC(C)=CCc1c2c(c3occ(-c4ccc(O)c(O)c4)c(=O)c3c1O)C=CC(C)(C)O2`, the Kd is reported as > 4 mM (inactive). `CC(=O)Nn1c(=O)[nH]c2ccccc2c1=O` was tested, and the Kd was > 4 mM (inactive). In the case of `Cn1c(O)c(C=NCC2CCNCC2)c(=O)n(C)c1=O`, the Kd is reported as > 4 mM (inactive). For `COc1cc(C(=O)O[C@H]2CC[C@@]3(C)[C@@H]4CC[C@H]5[C@]6(O)C[C@H](O)[C@@]7(O)[C@@H](CN8C[C@@H](C)CC[C@H]8[C@@]7(C)O)[C@]6(O)C[C@@]53OC24O)cc(OC)c1OC`, the Kd was > 4 mM (inactive). With `CC(=O)Oc1ccc2c(c1C(C)C)CCC1C(C)(C)CCC[C@]21C` (stereo not given in full) the Kd was > 4 mM (inactive). For `CS(=O)(=O)NN=C1CCCCC1`, the Kd was > 4 mM (inactive). `Cc1cccc(NC(=O)Nc2cc(C)on2)c1` was tested, and the Kd was > 4 mM (inactive). With `O=C(O)c1cc(=O)[nH]c2ccccc12` the Kd was > 4 mM (inactive). For `CNc1nnc(CSc2nc(C)cc(C)n2)s1`, the Kd was > 4 mM (inactive). `Cc1c(C(=O)OC(C)C)[nH]c2c1C(=O)CCC2` was tested, and the Kd was > 4 mM (inactive). `CC(=O)c1c(O)cc(C)n(Cc2ccccc2)c1=O` was tested, and the Kd was > 4 mM (inactive). With `Cc1nn(CC(=O)Nc2ccccn2)c(=O)c2ccccc12` the Kd was > 4 mM (inactive). For `COc1c2c(cc3cc[n+](C)cc13)OCO2`, the Kd was > 4 mM (inactive). `CC1(C)C2CC[C@]3(C)C(C(=O)C=C4[C@@H]5C[C@@](C)(C(=O)O)CC[C@]5(C)CC[C@]43C)[C@@]2(C)CC[C@@H]1O` (stereo not given in full) was tested, and the Kd was > 4 mM (inactive). For `OCC1CN(Cc2ccccc2)CCO1` (stereo not given), the Kd was > 4 mM (inactive). For `CC[C@@]1(O)C(=O)OCc2c1cc1n(c2=O)Cc2cc3ccccc3nc2-1`, the Kd was > 4 mM (inactive). With `CN(C)c1ccc(NC(=O)CC(C(=O)O)N(C)C)cc1` (stereo not given) the Kd was > 4 mM (inactive). With `CN1C(=O)CC[C@H]1c1cccnc1` the Kd was > 4 mM (inactive). `OCCNc1ccccn1` was tested, and the Kd was > 4 mM (inactive). For `NS(=O)(=O)c1ccc(NC(=O)/C=C\C(=O)O)cc1`, the Kd was > 4 mM (inactive). In the case of `Cc1nc2c(=O)[nH]c3ccccc3c2o1`, the Kd is reported as > 4 mM (inactive). For `Cc1ccccc1NC(=S)NCCO`, the Kd was > 4 mM (inactive). For `CN1CCC2(CC1)CC1CC3C=CC1(CN2)O3` (stereo not given), the Kd was > 4 mM (inactive). For `Cc1ccc2c(c1)=C(c1sc(N)nc1O)C(=O)N=2`, the Kd was > 4 mM (inactive).
